Assay: xn = mol fraction of the nth substance listed
Conditions: 101 kPa, Liquid, Vibrating tube method

CC(O)CN (stereo not drawn) [1-amino-2-propanol] + O
mass density [kg/m3]
Conditions	318.15 K	323.15 K	328.15 K	333.15 K	338.15 K	343.15 K	348.15 K	353.15 K
x2 = 0.0438	–	938.15	934	929.82	925.59	921.33	917.02	912.66
x2 = 0.0801	–	939.79	935.65	931.47	927.26	923	918.7	914.34
x2 = 0.1269	–	942.24	938.11	933.95	929.74	925.48	921.19	916.84
x2 = 0.1584	–	943.75	939.62	935.46	931.25	927	922.71	918.36
x2 = 0.2003	–	945.98	941.87	937.7	933.51	929.26	924.97	920.63
x2 = 0.2999	–	951.92	947.82	943.67	939.48	935.23	930.93	926.59
x2 = 0.3498	–	955.13	951.03	946.88	942.69	938.45	934.15	929.81
x2 = 0.3999	–	958.3	954.21	950.06	945.87	941.62	937.32	932.97
x2 = 0.4499	–	961.75	957.65	953.5	949.31	945.06	940.76	936.4
x2 = 0.4968	–	965.17	961.07	956.92	952.72	948.47	944.16	939.8
x2 = 0.5122	970.43	966.38	962.28	958.13	953.93	949.68	945.37	941.01
x2 = 0.5501	973.11	969.05	964.95	960.8	956.6	952.34	948.03	943.66
x2 = 0.6001	977.04	972.99	968.89	964.74	960.54	956.29	951.98	947.61
x2 = 0.6501	980.76	976.72	972.63	968.49	964.3	960.06	955.76	951.4
x2 = 0.7	984.34	980.34	976.28	972.17	968.01	963.8	959.53	955.2
x2 = 0.7501	987.6	983.67	979.68	975.64	971.55	967.4	963.19	958.92
x2 = 0.8	990.02	986.23	982.39	978.48	974.51	970.48	966.38	962.22
x2 = 0.84	991.29	987.71	984.06	980.33	976.53	972.66	968.72	964.71
x2 = 0.88	991.5	988.22	984.85	981.39	977.84	974.2	970.47	966.66
x2 = 0.92	990.94	988.05	985.04	981.92	978.68	975.33	971.88	968.33
x2 = 0.96	990.01	987.53	984.91	982.14	979.24	976.22	973.07	969.81
